This is an account of results in PubChem BioAssay (NCI).

What all share (assay): NCI anticancer screen, dose series, 48 h
The subject of assay [1] is DLD-1 colon.
Assay [2] deals with MCF7 breast.
Assay [3] relates to M19-MEL melanoma.
The subject of assay [4] is DMS 273 small cell lung.
Assay [5] relates to XF 498 CNS.
Assay [6] has as its system HCT-116 colon.
Assay [7] relates to SF-539 CNS.
Assay [8] deals with HOP-18 NSCLC.
Assay [9] has as its system SNB-78 CNS.
For assay [10], the system named is A549 NSCLC.
Assay [11] concerns SNB-19 CNS.
Assay [12] has as its system LXFL 529 NSCLC.

Each structure is given as a SMILES string.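 Each compound was tested at five concentrations against cells in 96-well plates for 48 hours. TGI is the concentration that stops growth completely.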 Where only a bound is given, the exact number is not on record here.

For `COc1cc(C2(c3ncc[nH]3)SSSCC2O)ccc1O` (centres undefined), the TGI was greater than 100 µM in [1]; greater than 100 µM in [2]; greater than 39.6 µM in assay [3]; greater than 100 µM in assay [4]; greater than 100 µM in assay [5]; greater than 100 µM in assay [6]. The TGI in [7], in [8], in assay [9], in assay [10] and in assay [11] was greater than 100 µM in each case.
In the case of `COc1nc(N)c(NC(C)=O)c(=O)n1C`, the TGI in assay [1], in [12], in assay [4], in assay [5], in assay [6] and in assay [7] was greater than 100 µM each time. The TGI in assay [8], in assay [9], in assay [10] and in assay [11] was greater than 100 µM throughout.
As to `CC1CCC2CC(=O)OC([C@@H]3C(=O)O[C@@H](C4=CCCC4)C4C(C)CCC43)C12` (some centres undefined), the TGI in [1], in assay [3], in [12], in [4], in assay [5] and in assay [6] was greater than 100 µM each time. The TGI in assay [7], in assay [8], in [9], in assay [10] and in [11] was greater than 100 µM throughout.
Turning to `CCCCCCCCCOCC(COP(=O)([O-])OCC[N+](C)(C)C)OC` (centres undefined), the TGI in assay [1], in assay [2], in assay [3], in [4], in [5] and in assay [6] was greater than 100 µM each time. The TGI in [7], in assay [8], in [9], in assay [10] and in assay [11] was greater than 100 µM throughout.
With `C/C=C1\CN2CCc3c([nH]c4ccccc34)C2CC1CCO` (centres undefined), the TGI in [1], in assay [3], in [12], in assay [4], in [5] and in [6] was greater than 100 µM in each case. Besides, the TGI in assay [7], in [8], in [9], in assay [10] and in assay [11] was greater than 100 µM in each case.
